This is an account of results in the Deep4Chem optical property database.

The data set can be described thus: solvent given as SMILES.

For `COC1=[N+]2C(=C(c3ccccc3)c3cc(SC#N)c(OC)n3[B-]2(F)F)C=C1SC#N`, the emission maximum (in CC#N) is 553 nm; the emission maximum (in CCCCCC) is 560 nm; the emission maximum (in CCOC(C)=O) came out at 556 nm; the emission maximum (in CO) stood at 550 nm; the emission maximum (in ClCCl) was determined as 555 nm.
The compound `CCC1=C(C)C2=C(c3c4ccccc4c(C)c4ccccc34)c3c(C)c(CC)c(C)n3[B-](F)(F)[N+]2=C1C` displayed an emission maximum (in CC#N) of 538 nm; an emission maximum (in CCCCCC) of 540 nm; an emission maximum (in CCO) of 538 nm; an emission maximum (in CN(C)C=O) of 540 nm; an emission maximum (in Cc1ccccc1) of 544 nm; an emission maximum (in ClCCl) of 543 nm.
As to `F[B-]1(F)OC(c2ccc(N3CCCCC3)cc2)=Cc2cccc[n+]21`, for the setting “in ClC(Cl)Cl”, the emission maximum was 499 nm.
Turning to `COc1c2ccccc2c(-c2ccccc2)c2ccccc12`, the emission maximum by setting is: (in C1COCCO1) 424 nm; (in CCCCCC) 420 nm; (in CCCCCCC) 420 nm; (in CCCCO) 426 nm; (in CCO) 426 nm; (in CN(C)C=O) 426 nm. Moreover, the emission maximum by setting is: (in Cc1ccccc1) 419 nm; (in ClC(Cl)(Cl)Cl) 426 nm; (in ClC(Cl)Cl) 426 nm; (in ClCCl) 426 nm; (in OCC(O)CO) 426 nm; (in OCCO) 426 nm.
In turn, `N#CC(C#N)=C(/C=C/c1cc2c3c(c1)CCCN3CCC2)c1ccc2c3c(cccc13)CC2` had an emission maximum (in C1CCOC1) of 602 nm; an emission maximum (in CC#N) of 622 nm; an emission maximum (in CC(C)=O) of 619 nm; an emission maximum (in CCOC(C)=O) of 600 nm; an emission maximum (in CN(C)C=O) of 629 nm; an emission maximum (in CO) of 613 nm. For the same compound, the emission maximum runs as follows: (in Cc1ccccc1) 580 nm; (in ClC(Cl)Cl) 599 nm.
Where the note is “in ClCCl”, `Cn1nc(-c2ccccc2)cc1-c1ccccc1` yielded an emission maximum of 338 nm.
Take `CC(C)(C)c1ccc2c(c1)sc1[n+]2[B-](F)(F)n2c(c3cccc4c(Br)ccc2c43)=N1`: the emission maximum by setting is: (in C1CCOC1) 520 nm; (in CC#N) 519 nm; (in CCCCCC) 516 nm; (in Cc1ccccc1) 524 nm; (in ClCCl) 552 nm.
In the case of `c1cc(N2CCCC2)ccn1`, the emission maximum reads like this: (in CC1CCCCC1) 313 nm; (in CCO) 313 nm; (in ClC(Cl)Cl) 313 nm.
For `COc1ccc(/C=C/c2ccc(-c3nnc(-c4ccc(-c5cc6ccccc6s5)cc4)o3)cc2)cc1`, the emission maximum runs as follows: (in CC#N) 441 nm; (in CC(C)=O) 449 nm; (in CCCCCCCC) 407 nm; (in CCCCCCCCCCO) 427 nm; (in CCCCCCCCO) 433 nm; (in CCCCCO) 436 nm. The emission maximum runs as follows: (in CCCO) 438 nm; (in CN(C)C=O) 463 nm; (in CO) 445 nm; (in CS(C)=O) 459 nm.
The compound `C(=C\c1ccc(-c2cccc3ccccc23)s1)/c1cccs1` had an emission maximum (in ClCCl) of 453 nm.
For `N#Cc1c2nc3ccccn3c2nc2c1nc1ccccn12`, the emission maximum is, setting by setting: (in C1CCCCC1) 460 nm; (in C1COCCO1) 470 nm; (in CC#N) 495 nm; (in CN(C)C=O) 515 nm; (in ClC(Cl)Cl) 475 nm.
The compound `c1cc2ccc3cc4[nH]c(-c5cc6c(cc7ccc8cccc9ccc6c7c89)[nH]5)cc4c4ccc(c1)c2c34` came in with an emission maximum (in C1CCOC1) of 482 nm.
As to `c1ccc(-c2nc(-c3ccccc3)nc(-c3ccc(-n4c5ccccc5c5cc(-c6ccc7oc8ccccc8c7c6)ccc54)cc3)n2)cc1`, the emission maximum came to 470 nm (in CCOC(C)=O), 526 nm (in CN(C)C=O) and 433 nm (in Cc1ccccc1).
